Test results taken from the supplement of paper PMC10627819.

Assays:
Assay in all cases: Bliss interaction score (quartile over a dose matrix) (fitness difference); higher = more antagonism (negative = synergy)
[1] = test system: B. subtilis 168
Procedure, shortened: (§1)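 Fitness here means normalised growth, inferred for single drugs from the combination data. Growth was OD595 at entry into stationary phase, divided by the plate's robust no-drug mean and capped at 1. The Bliss score is observed minus expected fitness, with the expectation being the product, and its quartiles span technical, biological and donor/recipient replicates.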

[2] = test system: S. aureus DSM 20231
Procedure, shortened: as §1

[3] = test system: S. aureus Newman
Procedure, shortened: as §1

[4] = test system: S. pneumoniae D39V
Procedure, shortened: as §1
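Also: first quartile when negative (synergy) and third quartile when positive (antagonism).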

SMILES | Bliss interaction score [1] | Bliss interaction score [2] | Bliss interaction score [3] | Bliss interaction score [4] | Bliss interaction score ([1]; main component drawn) | Bliss interaction score ([2]; main component drawn) | Bliss interaction score ([3]; main component drawn) | Bliss interaction score ([4]; main component drawn)
CC1(C)S[C@@H]2[C@H](NC(=O)Cc3ccccc3)C(=O)N2[C@H]1C(=O)O [PenicillinG] + CC1=C\[C@@H](O)CC(=O)Cc2nc(co2)C(=O)N2CCC=C2C(=O)O[C@H](C(C)C)[C@H](C)/C=C/C(=O)NC\C=C\1 [Virginiamycin M1] | 0.0479 | -0.0526 | 0.0409 | 0.099 |  |  |  | 
C[C@@H]1O[C@@H]1P(=O)(O)O [Fosfomycin] + CC1(C)S[C@@H]2[C@H](NC(=O)Cc3ccccc3)C(=O)N2[C@H]1C(=O)O [PenicillinG] | -0.0401 | -0.136 | 0.0465 | -0.0713 |  |  |  | 
N#CC(C#N)=NNc1cccc(Cl)c1 [CCCP] + Cn1nnc(-c2ccc(-c3ccc(N4C[C@H](CO)OC4=O)cc3F)cn2)n1 [Tedizolid] | -0.0578 | -0.031 | 0.104 | 0.044 |  |  |  | 
Cc1ncc([N+](=O)[O-])n1CCO [Metronidazole] + CN[C@H](CC(C)C)C(=O)N[C@H]1C(=O)N[C@@H](CC(N)=O)C(=O)N[C@H]2C(=O)N[C@H]3C(=O)N[C@H](C(=O)N[C@H](C(=O)O)c4cc(O)cc(O)c4-c4cc3ccc4O)[C@H](O[C@H]3C[C@](C)(N)[C@@H](O)[C@H](C)O3)c3ccc(c(Cl)c3)Oc3cc2cc(c3O[C@@H]2O[C@H](CO)[C@@H](O)[C@H](O)[C@H]2O[C@H]2C[C@](C)(NCc3ccc(-c4ccc(Cl)cc4)cc3)[C@@H](O)[C@H](C)O2)Oc2ccc(cc2Cl)[C@H]1O [Oritavancin] | -0.0222 | 0.0377 | 0.0752 | -0.0396 |  |  |  | 
CC(=O)Oc1ccccc1C(=O)O [Acetylsalicylicacid] + O=C(O)c1cn(C2CC2)c2cc(N3CCNCC3)c(F)cc2c1=O [Ciprofloxacin] | 0.146 | 0.142 | 0.158 | 0.144 |  |  |  | 
CN(C)[C@@H]1C(O)=C(C(N)=O)C(=O)[C@@]2(O)C(O)=C3C(=O)c4c(O)ccc(Cl)c4[C@@](C)(O)[C@H]3C[C@@H]12 [Clortetracycline] + Cc1cc(NS(=O)(=O)c2ccc(N)cc2)no1 [Sulfamethoxazol] | 0.0702 | -0.058 | 0.0566 | -0.0455 |  |  |  | 
CN(C)[C@@H]1C(O)=C(C(N)=O)C(=O)[C@@]2(O)C(O)=C3C(=O)c4c(O)ccc(Cl)c4[C@@](C)(O)[C@H]3C[C@@H]12 [Clortetracycline] + COc1cccc2c1C(=O)c1c(O)c3c(c(O)c1C2=O)C[C@@](O)(C(=O)CO)C[C@@H]3O[C@H]1C[C@H](N)[C@H](O)[C@H](C)O1 [Doxorubicin] | 0.0883 | 0.0615 | -0.0472 | -0.182 |  |  |  | 
C[C@H]1c2cccc(O)c2C(=O)C2=C(O)[C@]3(O)C(=O)C(C(N)=O)=C(O)[C@@H](N(C)C)[C@@H]3[C@@H](O)[C@@H]21 [Doxycycline] + CC1(C)S[C@@H]2[C@H](NC(=O)Cc3ccccc3)C(=O)N2[C@H]1C(=O)O [PenicillinG] | 0.108 | 0.0444 | -0.027 | 0.106 |  |  |  | 
C[C@@H]1O[C@@H]1P(=O)(O)O [Fosfomycin] + CN[C@H](CC(C)C)C(=O)N[C@H]1C(=O)N[C@@H](CC(N)=O)C(=O)N[C@H]2C(=O)N[C@H]3C(=O)N[C@H](C(=O)N[C@H](C(=O)O)c4cc(O)cc(O)c4-c4cc3ccc4O)[C@H](O[C@H]3C[C@](C)(N)[C@@H](O)[C@H](C)O3)c3ccc(c(Cl)c3)Oc3cc2cc(c3O[C@@H]2O[C@H](CO)[C@@H](O)[C@H](O)[C@H]2O[C@H]2C[C@](C)(NCc3ccc(-c4ccc(Cl)cc4)cc3)[C@@H](O)[C@H](C)O2)Oc2ccc(cc2Cl)[C@H]1O [Oritavancin] | 0.0255 | 0.0683 | 0.0953 | -0.0314 |  |  |  | 
CC(=O)Oc1ccccc1C(=O)O [Acetylsalicylicacid] + O=C(N[C@H](CO)[C@H](O)c1ccc([N+](=O)[O-])cc1)C(Cl)Cl [Chloramphenicol] | 0.0772 | -0.0904 | 0.0794 | 0.115 |  |  |  | 
Cc1ncc([N+](=O)[O-])n1CCO [Metronidazole] + Clc1ccc(COC(Cn2ccnc2)c2ccc(Cl)cc2Cl)c(Cl)c1 [Miconazole] | 0.0471 | 0.0327 | 0.0522 | 0.0478 |  |  |  | 
CC1(C)S[C@@H]2[C@H](NC(=O)Cc3ccccc3)C(=O)N2[C@H]1C(=O)O [PenicillinG] + CN[C@@H]1[C@H](O)[C@H](NC)[C@H]2O[C@@]3(O)C(=O)C[C@@H](C)O[C@H]3O[C@@H]2[C@H]1O [Spectinomycin] | 0.0272 | -0.0365 | -0.0496 | 0.0325 |  |  |  | 
CN(C)[C@@H]1C(O)=C(C(N)=O)C(=O)[C@@]2(O)C(O)=C3C(=O)c4c(O)ccc(Cl)c4[C@@](C)(O)[C@H]3C[C@@H]12 [Clortetracycline] + CN(N=O)C(=O)N[C@@H](C=O)[C@@H](O)[C@H](O)[C@H](O)CO [Streptozotocin] | 0.073 | 0.0625 | 0.0347 | -0.0534 |  |  |  | 
CC(=O)Oc1ccccc1C(=O)O [Acetylsalicylicacid] + O=C(O[C@@H]1Cc2c(O)cc(O)cc2O[C@@H]1c1cc(O)c(O)c(O)c1)c1cc(O)c(O)c(O)c1 [EGCG] | 0.141 | 0.159 | 0.0426 | -0.0702 |  |  |  | 
C[C@H]1c2cccc(O)c2C(=O)C2=C(O)[C@]3(O)C(=O)C(C(N)=O)=C(O)[C@@H](N(C)C)[C@@H]3[C@@H](O)[C@@H]21 [Doxycycline] + Oc1cc(Cl)ccc1Oc1ccc(Cl)cc1Cl [Triclosan] | -0.0554 | -0.0352 | 0.0244 | 0.0668 |  |  |  | 
CC(=O)Oc1ccccc1C(=O)O [Acetylsalicylicacid] + Cc1cc(NS(=O)(=O)c2ccc(N)cc2)no1 [Sulfamethoxazol] | 0.0808 | -0.0892 | -0.0624 | -0.0493 |  |  |  | 

SMILES | Bliss interaction score [1] | Bliss interaction score [2] | Bliss interaction score [3] | Bliss interaction score [4] | Bliss interaction score ([1]; main component drawn) | Bliss interaction score ([2]; main component drawn) | Bliss interaction score ([3]; main component drawn) | Bliss interaction score ([4]; main component drawn)
CO/N=C(\C(=O)N[C@@H]1C(=O)N2C(C(=O)O)=C(COC(C)=O)CS[C@H]12)c1csc(N)n1 [Cefotaxime] + CC[C@H]1OC(=O)[C@H](C)[C@@H](O[C@H]2C[C@@](C)(OC)[C@@H](O)[C@H](C)O2)[C@H](C)[C@@H](O[C@@H]2O[C@H](C)C[C@H](N(C)C)[C@H]2O)[C@](C)(O)C[C@@H](C)C(=O)[C@H](C)[C@@H](O)[C@]1(C)O [Erythromycin] | 0.0702 | 0.016 | -0.0525 | 0.0515 |  |  |  | 
CN(C)[C@@H]1C(O)=C(C(N)=O)C(=O)[C@@]2(O)C(O)=C3C(=O)c4c(O)ccc(Cl)c4[C@@](C)(O)[C@H]3C[C@@H]12 [Clortetracycline] + Oc1cc(Cl)ccc1Oc1ccc(Cl)cc1Cl [Triclosan] | 0.0578 | -0.0936 | 0.021 | 0.117 |  |  |  | 
N#CC(C#N)=NNc1cccc(Cl)c1 [CCCP] + CN[C@@H]1[C@H](O[C@H]2[C@H](O[C@H]3[C@H](O)[C@@H](O)[C@H](N=C(N)N)[C@@H](O)[C@@H]3N=C(N)N)O[C@@H](C)[C@]2(O)C=O)O[C@@H](CO)[C@H](O)[C@H]1O [Streptomycin] | 0.48 | 0.0501 | 0.0563 | 0.0786 |  |  |  | 
CC(=O)Oc1ccccc1C(=O)O [Acetylsalicylicacid] + CCCCCCCCCC(=O)N[C@@H]1[C@H]([C@@H]([C@H](O[C@H]1OC2=C3C=C4C=C2OC5=C(C=C(C=C5)[C@H]([C@H]6C(=O)N[C@@H](C7=C(C(=CC(=C7)O)OC8[C@H]([C@H]([C@@H]([C@H](O8)CO)O)O)O)C9=C(C=CC(=C9)[C@H](C(=O)N6)NC(=O)[C@@H]4NC(=O)[C@@H]1C2=CC(=CC(=C2)OC2=C(C=CC(=C2)[C@H](C(=O)N[C@H](CC2=CC(=C(O3)C=C2)Cl)C(=O)N1)N)O)O)O)C(=O)O)O[C@H]1[C@@H]([C@H]([C@@H]([C@H](O1)CO)O)O)NC(=O)C)Cl)CO)O)O [Teicoplanin] |  |  |  |  | 0.206 | 0.0851 | -0.0656 | -0.045
Cc1ncc([N+](=O)[O-])n1CCO [Metronidazole] + CO[C@@]12[C@H](COC(N)=O)C3=C(C(=O)C(C)=C(N)C3=O)N1C[C@@H]1N[C@@H]12 [MitomycinC] | 0.132 | 0.0443 | 0.0511 | 0.0827 |  |  |  | 
CO/N=C(\C(=O)N[C@@H]1C(=O)N2C(C(=O)O)=C(COC(N)=O)CS[C@H]12)c1ccco1 [Cefuroxime] + O=C1CN(/N=C/c2ccc([N+](=O)[O-])o2)C(=O)N1 [Nitrofurantoin] | -0.104 | 0.0612 | -0.0317 | 0.0749 |  |  |  | 
N#CC(C#N)=NNc1cccc(Cl)c1 [CCCP] + Cc1cc(NS(=O)(=O)c2ccc(N)cc2)no1 [Sulfamethoxazol] | -0.0348 | -0.0343 | -0.0463 | 0.0794 |  |  |  | 
N#CC(C#N)=NNc1cccc(Cl)c1 [CCCP] + CN[C@@H]1[C@H](O)[C@H](NC)[C@H]2O[C@@]3(O)C(=O)C[C@@H](C)O[C@H]3O[C@@H]2[C@H]1O [Spectinomycin] | 0.0317 | 0.0771 | -0.0505 | 0.0475 |  |  |  | 
CO/N=C(\C(=O)N[C@@H]1C(=O)N2C(C(=O)O)=C(COC(C)=O)CS[C@H]12)c1csc(N)n1 [Cefotaxime] + CCC[C@@H]1C[C@@H](C(=O)N[C@@H]([C@H]2O[C@H](SC)[C@H](O)[C@@H](O)[C@H]2O)[C@H](C)Cl)N(C)C1 [Clindamycin] | 0.0327 | 0.0463 | -0.0656 | 0.113 |  |  |  | 
O=C(O)c1cn(C2CC2)c2cc(N3CCNCC3)c(F)cc2c1=O [Ciprofloxacin] + O=C(O)[C@H]1/C(=C/CO)O[C@@H]2CC(=O)N21 [Clavulanic] | -0.154 | -0.184 | 0.18 | -0.0997 |  |  |  | 
CO/N=C(\C(=O)N[C@@H]1C(=O)N2C(C(=O)O)=C(COC(N)=O)CS[C@H]12)c1ccco1 [Cefuroxime] + CN[C@H](CC(C)C)C(=O)N[C@H]1C(=O)N[C@@H](CC(N)=O)C(=O)N[C@H]2C(=O)N[C@H]3C(=O)N[C@H](C(=O)N[C@H](C(=O)O)c4cc(O)cc(O)c4-c4cc3ccc4O)[C@H](O[C@H]3C[C@](C)(N)[C@@H](O)[C@H](C)O3)c3ccc(c(Cl)c3)Oc3cc2cc(c3O[C@@H]2O[C@H](CO)[C@@H](O)[C@H](O)[C@H]2O[C@H]2C[C@](C)(NCc3ccc(-c4ccc(Cl)cc4)cc3)[C@@H](O)[C@H](C)O2)Oc2ccc(cc2Cl)[C@H]1O [Oritavancin] | -0.0309 | -0.0743 | -0.103 | 0.0536 |  |  |  | 
CC(=O)Oc1ccccc1C(=O)O [Acetylsalicylicacid] + CN(N=O)C(=O)N[C@@H](C=O)[C@@H](O)[C@H](O)[C@H](O)CO [Streptozotocin] | 0.0788 | -0.0369 | 0.0716 | -0.0923 |  |  |  | 
N#CC(C#N)=NNc1cccc(Cl)c1 [CCCP] + CN[C@H](CC(C)C)C(=O)N[C@H]1C(=O)N[C@@H](CC(N)=O)C(=O)N[C@H]2C(=O)N[C@H]3C(=O)N[C@H](C(=O)N[C@H](C(=O)O)c4cc(O)cc(O)c4-c4cc3ccc4O)[C@H](O)c3ccc(c(Cl)c3)Oc3cc2cc(c3O[C@@H]2O[C@H](CO)[C@@H](O)[C@H](O)[C@H]2O[C@H]2C[C@](C)(N)[C@H](O)[C@H](C)O2)Oc2ccc(cc2Cl)[C@H]1O [Vancomycin] | 0.0489 | 0.0309 | -0.0614 | 0.0815 |  |  |  | 
N#CC(C#N)=NNc1cccc(Cl)c1 [CCCP] + COc1cccc2c1C(=O)c1c(O)c3c(c(O)c1C2=O)C[C@@](O)(C(=O)CO)C[C@@H]3O[C@H]1C[C@H](N)[C@H](O)[C@H](C)O1 [Doxorubicin] | -0.0695 | 0.0424 | -0.0546 | -0.0519 |  |  |  | 
N#CC(C#N)=NNc1cccc(Cl)c1 [CCCP] + CC[C@H]1OC(=O)[C@H](C)[C@@H](O[C@H]2C[C@@](C)(OC)[C@@H](O)[C@H](C)O2)[C@H](C)[C@@H](O[C@@H]2O[C@H](C)C[C@H](N(C)C)[C@H]2O)[C@](C)(OC)C[C@@H](C)C(=O)[C@H](C)[C@@H](O)[C@]1(C)O [Clarithromycin] | 0.0363 | -0.0461 | 0.0706 | -0.0531 |  |  |  | 
